Some results are limits rather than exact numbers.

One test addresses human TLR7 (Homo sapiens (Human), UniProt Q9NYK1). Description: TLR7 inhibition reporter assay (HEK-Blue SEAP). The following applies: HEK-Blue human TLR7 cells, gardiquimod 7.5 μM. It is filed as cell-based. On the technique in general: A reporter such as luciferase makes a cellular process visible.
The next test deals with human TLR8 (Homo sapiens (Human), UniProt Q9NR97). Description: TLR8 inhibition reporter assay (HEK-Blue SEAP).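 Further: SEAP driven by IFN-β minimal promoter carrying NF-κB and AP-1 sites, compounds dosed 0.05 nM to 50 µM for 22 h, inhibition scaled between agonist-plus-DMSO and reference-inhibitor wells.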 The following applies: read-out: TLR8 IC50; HEK-Blue human TLR8 cells, R848 15.9 μM.
A further test has as its target human TLR9 (Homo sapiens (Human), UniProt Q9NR96). Description: TLR9 inhibition reporter assay (HEK-Blue SEAP).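 Further: SEAP driven by an IFN-β minimal promoter with NF-κB and AP-1 sites, read after 22 h, compounds dosed 0.05 nM–50 µM, inhibition scaled between agonist plus DMSO and reference-inhibitor wells.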 The note with it: read-out: TLR9 IC50; HEK-Blue human TLR9 cells, ODN2006 5 nM.

Sequence of human TLR9 (Q9NR96 26-1032): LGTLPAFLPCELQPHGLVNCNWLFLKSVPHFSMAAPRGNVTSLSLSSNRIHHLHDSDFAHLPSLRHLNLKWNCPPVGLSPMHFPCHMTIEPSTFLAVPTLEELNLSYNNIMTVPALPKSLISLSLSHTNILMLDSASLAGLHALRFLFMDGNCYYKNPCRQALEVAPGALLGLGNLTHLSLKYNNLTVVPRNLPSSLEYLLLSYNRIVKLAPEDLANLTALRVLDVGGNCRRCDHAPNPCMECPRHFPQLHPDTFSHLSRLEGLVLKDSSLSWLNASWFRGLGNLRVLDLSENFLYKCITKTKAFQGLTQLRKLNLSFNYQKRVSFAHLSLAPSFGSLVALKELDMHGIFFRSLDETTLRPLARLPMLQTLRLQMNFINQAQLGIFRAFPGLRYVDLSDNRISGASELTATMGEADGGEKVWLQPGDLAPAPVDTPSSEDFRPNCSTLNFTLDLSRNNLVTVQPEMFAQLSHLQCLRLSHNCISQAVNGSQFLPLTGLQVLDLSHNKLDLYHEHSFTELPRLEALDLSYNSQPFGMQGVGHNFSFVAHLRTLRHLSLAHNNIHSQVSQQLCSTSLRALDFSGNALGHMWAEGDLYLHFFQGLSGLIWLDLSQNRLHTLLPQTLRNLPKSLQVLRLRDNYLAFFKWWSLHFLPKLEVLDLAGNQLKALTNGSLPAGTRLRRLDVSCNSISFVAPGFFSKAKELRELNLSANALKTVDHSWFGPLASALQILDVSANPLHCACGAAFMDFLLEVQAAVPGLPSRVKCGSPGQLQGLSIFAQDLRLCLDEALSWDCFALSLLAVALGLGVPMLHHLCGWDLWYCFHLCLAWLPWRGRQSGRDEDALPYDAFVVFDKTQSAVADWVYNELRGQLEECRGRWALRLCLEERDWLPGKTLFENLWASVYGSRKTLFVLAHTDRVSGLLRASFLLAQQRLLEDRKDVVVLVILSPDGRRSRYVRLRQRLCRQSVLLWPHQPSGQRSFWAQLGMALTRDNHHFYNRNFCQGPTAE
Sequence of human TLR8 (Q9NR97 27-1041): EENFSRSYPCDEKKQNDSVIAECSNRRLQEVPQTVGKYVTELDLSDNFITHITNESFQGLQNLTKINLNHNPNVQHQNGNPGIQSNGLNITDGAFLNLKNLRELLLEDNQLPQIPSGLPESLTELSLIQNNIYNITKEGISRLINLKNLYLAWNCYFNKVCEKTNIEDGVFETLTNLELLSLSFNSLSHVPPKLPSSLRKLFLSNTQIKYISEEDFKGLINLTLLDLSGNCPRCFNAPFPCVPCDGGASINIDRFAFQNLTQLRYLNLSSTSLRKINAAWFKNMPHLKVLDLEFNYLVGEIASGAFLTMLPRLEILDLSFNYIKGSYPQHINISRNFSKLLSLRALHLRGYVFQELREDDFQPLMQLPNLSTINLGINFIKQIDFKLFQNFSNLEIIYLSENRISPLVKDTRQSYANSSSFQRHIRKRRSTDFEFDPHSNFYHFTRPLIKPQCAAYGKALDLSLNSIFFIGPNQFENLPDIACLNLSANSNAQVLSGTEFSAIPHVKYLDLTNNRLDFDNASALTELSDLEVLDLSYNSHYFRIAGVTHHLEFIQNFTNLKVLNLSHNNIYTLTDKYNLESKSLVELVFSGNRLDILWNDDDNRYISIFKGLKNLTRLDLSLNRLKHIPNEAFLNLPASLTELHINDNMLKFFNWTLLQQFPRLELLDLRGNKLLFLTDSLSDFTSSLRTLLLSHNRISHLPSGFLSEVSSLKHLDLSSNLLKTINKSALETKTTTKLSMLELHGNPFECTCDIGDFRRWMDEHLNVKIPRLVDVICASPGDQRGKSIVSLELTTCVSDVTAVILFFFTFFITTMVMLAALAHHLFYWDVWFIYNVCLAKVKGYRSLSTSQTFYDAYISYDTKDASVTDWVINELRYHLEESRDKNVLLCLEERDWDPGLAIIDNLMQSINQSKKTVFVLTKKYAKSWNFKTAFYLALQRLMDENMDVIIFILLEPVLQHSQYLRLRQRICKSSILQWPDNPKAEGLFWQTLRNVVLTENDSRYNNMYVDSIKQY
Sequence of human TLR7 (Q9NYK1 27-1049): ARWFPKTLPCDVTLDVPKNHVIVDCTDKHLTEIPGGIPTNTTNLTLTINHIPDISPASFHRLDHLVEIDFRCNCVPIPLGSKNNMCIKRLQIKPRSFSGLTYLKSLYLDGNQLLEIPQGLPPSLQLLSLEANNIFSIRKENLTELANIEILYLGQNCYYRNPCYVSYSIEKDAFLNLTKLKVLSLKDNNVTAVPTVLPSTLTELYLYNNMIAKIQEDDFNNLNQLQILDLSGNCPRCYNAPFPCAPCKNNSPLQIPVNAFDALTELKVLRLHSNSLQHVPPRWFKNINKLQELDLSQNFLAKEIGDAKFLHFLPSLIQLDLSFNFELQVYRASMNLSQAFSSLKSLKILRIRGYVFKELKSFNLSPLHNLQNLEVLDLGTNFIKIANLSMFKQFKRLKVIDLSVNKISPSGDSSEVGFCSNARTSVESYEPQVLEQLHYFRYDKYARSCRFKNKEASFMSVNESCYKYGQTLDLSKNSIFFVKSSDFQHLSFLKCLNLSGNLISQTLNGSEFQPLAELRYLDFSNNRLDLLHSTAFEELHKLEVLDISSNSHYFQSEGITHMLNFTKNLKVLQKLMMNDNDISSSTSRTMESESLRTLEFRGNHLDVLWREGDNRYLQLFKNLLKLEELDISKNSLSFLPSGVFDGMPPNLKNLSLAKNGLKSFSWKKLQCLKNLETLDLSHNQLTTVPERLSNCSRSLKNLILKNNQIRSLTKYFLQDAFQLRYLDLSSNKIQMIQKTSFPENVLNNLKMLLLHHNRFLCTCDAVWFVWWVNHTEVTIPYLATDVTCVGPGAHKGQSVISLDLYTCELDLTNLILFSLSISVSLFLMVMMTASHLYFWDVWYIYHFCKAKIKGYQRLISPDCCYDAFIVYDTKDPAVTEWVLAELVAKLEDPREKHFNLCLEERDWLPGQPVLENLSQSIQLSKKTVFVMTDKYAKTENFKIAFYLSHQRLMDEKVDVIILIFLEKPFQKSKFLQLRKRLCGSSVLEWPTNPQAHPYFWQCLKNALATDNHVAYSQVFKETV
Procedure for human TLR7: HEK-Blue™-cells (Invivogen) overexpressing human TLR7, TLR8 or TLR9 receptors were used for screening inhibitors of these receptors using an inducible SEAP (secreted embryonic alkaline phosphatase) reporter gene under the control of the IFN-β minimal promoter fused to five NF-κB and AP-1-binding sites. Briefly, cells are seeded into Greiner 384 well plates (15000 cells per well for TLR7, 20,000 for TLR8 and 25,000 for TLR9) and then treated with test compounds in DMSO to yield a final dose response concentration range of 0.05 nM-50 μM. After a 30 minute compound pre-treatment at room temperature, the cells are then stimulated with a TLR7 ligand (gardiquimod at a final concentration of 7.5 μM), TLR8 ligand (R848 at a final concentration of 15.9 μM) or TLR9 ligand (ODN2006 at a final concentration of 5 nM) to activate NF-κB and AP-1 which induce the production of SEAP. After a 22 hour incubation at 37° C., 5% CO2, SEAP levels are determined with the addition of HEK-Blue™ Detection reagent (Invivogen), a cell culture medium that allows for detection of SEAP, according to manufacturer's specifications.

`Cc1c(-c2[nH]c3ccc(N4CC5(CN(CCC(N)=O)C5)C4)nc3c2C(C)C)cn2ncnc2c1C` [Example 1005]: the IC50 (commonly the concentration that gives 50% inhibition) against human TLR7 came to 4.4 nM; on human TLR8, 7.4 nM; on human TLR9 it was 1660 nM.

Take `Cc1c(-c2[nH]c3ccc(N4CC5(CN(C(=O)CCN(C)C)C5)C4)nc3c2C(C)C)cn2ncnc2c1C` [Example 1006]: the IC50 is 3.6 nM on human TLR7, 9.6 nM at human TLR8 and 339 nM on human TLR9.

Take `Cc1c(-c2[nH]c3ccc(N4CC5(CN(CCCS(C)(=O)=O)C5)C4)nc3c2C(C)C)cn2ncnc2c1C` [Example 1007]: the IC50 turned out to be 3.2 nM on human TLR7, 4 nM on human TLR8 and 2340 nM at human TLR9.

With `Cc1c(-c2[nH]c3ccc(N4CC5(CN(CC#N)C5)C4)nc3c2C(C)C)cn2ncnc2c1C` [Example 1008], the IC50 against human TLR7 was determined as 15 nM; on human TLR8, 32 nM; on human TLR9, 13300 nM.

As to `Cc1c(-c2[nH]c3ccc(N4CC5(CN(CC(C)C)C5)C4)nc3c2C(C)C)cn2ncnc2c1C` [Example 1009], the IC50 at human TLR7 is 4.5 nM; at human TLR8, 7.7 nM; on human TLR9, 2660 nM.

For the molecule `Cc1c(-c2[nH]c3ccc(N4CC5(CN(CC(C)(C)C)C5)C4)nc3c2C(C)C)cn2ncnc2c1C` [Example 1010], the IC50 on human TLR7 came to 3.6 nM; at human TLR8, 4.7 nM; at human TLR9 it was 2430 nM.

Turning to `Cc1c(-c2[nH]c3ccc(N4CC5(C4)CN(C4COC4)C5)nc3c2C(C)C)cn2ncnc2c1C` [Example 1011], the IC50 against human TLR7 was determined as 11 nM; on human TLR8, 22 nM; on human TLR9, 23700 nM.

For `Cc1c(-c2[nH]c3ccc(N4CC5(C4)CN(C4CCOCC4)C5)nc3c2C(C)C)cn2ncnc2c1C` [Example 1012], the IC50 against human TLR7 worked out at 0.59 nM; on human TLR8, 1.4 nM; at human TLR9, 1690 nM.

As for `COCCN1CC2(C1)CN(c1ccc3[nH]c(-c4cn5ncnc5c(C)c4C)c(C(C)C)c3n1)C2` [Example 1013], the IC50 against human TLR7 worked out at 11 nM; at human TLR8, 9.2 nM; on human TLR9 it was 7680 nM.

Take `Cc1c(-c2[nH]c3ccc(N4CC5(CN(CCC#N)C5)C4)nc3c2C(C)C)cn2ncnc2c1C` [Example 1014]: the figures for the IC50 at human TLR7, at human TLR8 and on human TLR9 were 21 nM, 26 nM and 21900 nM, respectively.

Regarding `CCCN1CC2(C1)CN(c1ccc3[nH]c(-c4cn5ncnc5c(C)c4C)c(C(C)C)c3n1)C2` [Example 1015], the IC50 at human TLR7 was 1.3 nM; at human TLR8 it was 7.8 nM; on human TLR9, 2380 nM.

Turning to `COc1cc(-c2[nH]c3ccc(N4CC5(CNC5)C4)nc3c2C(C)C)cn2ncnc12` [Example 1016], the IC50 against human TLR7 came to 2.9 nM; at human TLR8, 38 nM; at human TLR9, 641 nM.

For `COc1cc(-c2[nH]c3ccc(N4CC5(CN(C)C5)C4)nc3c2C(C)C)cn2ncnc12` [Example 1017], the IC50 at human TLR7 worked out at 1.3 nM; on human TLR8, 16 nM; on human TLR9, 3300 nM.

Consider `CCN1CC2(C1)CN(c1ccc3[nH]c(-c4cc(OC)c5ncnn5c4)c(C(C)C)c3n1)C2` [Example 1018], for which the IC50 on human TLR7 amounted to 1.7 nM; on human TLR8 it was 8.9 nM; at human TLR9, 2780 nM.

Turning to `CCCN1CC2(C1)CN(c1ccc3[nH]c(-c4cc(OC)c5ncnn5c4)c(C(C)C)c3n1)C2` [Example 1019], the IC50 against human TLR7 turned out to be 1.7 nM; at human TLR8, 16 nM; on human TLR9, 3280 nM.

Take `COc1cc(-c2[nH]c3ccc(N4CC5(C4)CN(C(C)C)C5)nc3c2C(C)C)cn2ncnc12` [Example 1020]: the IC50 on human TLR7 is 1.8 nM; at human TLR8, 17 nM; at human TLR9, 3860 nM.

As to `COc1cc(-c2[nH]c3ccc(N4CC5(CN(CC(C)(C)O)C5)C4)nc3c2C(C)C)cn2ncnc12` [Example 1021], the half-inhibitory concentration (IC50) was found to be 4.3 nM on human TLR7, 11 nM at human TLR8 and 5330 nM on human TLR9.

With `Cc1c(-c2[nH]c3ccc(C4CC5(C4)CN(C4CCOCC4)C5)nc3c2C(C)C)cn2ncnc2c1C` [Example 1024], the IC50 against human TLR7 worked out at 1.8 nM; on human TLR8, 1.2 nM; at human TLR9, 4540 nM.

Consider `Cc1c(-c2[nH]c3ccc(C4CC5(C4)CN(CC4(C)COC4)C5)nc3c2C(C)C)cn2ncnc2c1C` [Example 1025], for which the IC50 against human TLR7 was determined as 3 nM; at human TLR8, 0.86 nM; at human TLR9, 5860 nM.

For `Cc1c(-c2[nH]c3ccc(C4CC5(C4)CN(CCS(C)(=O)=O)C5)nc3c2C(C)C)cn2ncnc2c1C` [Example 1026], the figures for the IC50 at human TLR7, on human TLR8 and at human TLR9 were 4.5 nM, 6.3 nM and 14500 nM, respectively.

Take `Cc1c(-c2[nH]c3ccc(C4CC5(C4)CN(CC(C)(C)O)C5)nc3c2C(C)C)cn2ncnc2c1C` [Example 1028]: the IC50 against human TLR7 amounted to 7.6 nM; at human TLR8, 2.1 nM; at human TLR9, 17000 nM.

With `Cc1c(-c2[nH]c3ccc(C4CC5(C4)CN(CCC(N)=O)C5)nc3c2C(C)C)cn2ncnc2c1C` [Example 1029], the IC50 against human TLR7 is 1.4 nM; at human TLR8, 5 nM; at human TLR9, 8380 nM.

Turning to `Cc1c(-c2[nH]c3ccc(C4CC5(C4)CN(CCCS(C)(=O)=O)C5)nc3c2C(C)C)cn2ncnc2c1C` [Example 1030], the results for the IC50 against human TLR7, at human TLR8 and on human TLR9 were 3.1 nM, 1.9 nM and 6280 nM, respectively.

Regarding `COCCN1CC2(CC(c3ccc4[nH]c(-c5cn6ncnc6c(C)c5C)c(C(C)C)c4n3)C2)C1` [Example 1031], the IC50 on human TLR7 was 18 nM; at human TLR8 it was 2 nM; at human TLR9, 12700 nM.

Turning to `Cc1c(-c2[nH]c3ccc(N4CCN(CCN(C)C)C(=O)C4)nc3c2C(C)C)cn2ncnc2c1C` [Example 1032], the IC50 at human TLR7 was found to be 1210 nM; at human TLR8, 196 nM; on human TLR9 it was 25400 nM.

For the molecule `Cc1c(-c2[nH]c3ccc(N4CCN(C(=O)CN5CC6(COC6)C5)CC4)nc3c2C(C)C)cn2ncnc2c1C` [Example 1033], the IC50 on human TLR7 was determined as 1090 nM; on human TLR8 it was 974 nM; at human TLR9 it was 22400 nM.

As to `CNCCC(=O)N1C[C@H](C)N(c2ccc3[nH]c(-c4cn5ncnc5c(C)c4C)c(C(C)C)c3n2)C[C@H]1C` [Example 1034], the IC50 on human TLR7 is 1400 nM; at human TLR8, over 3120 nM; on human TLR9, 26600 nM.

For the molecule `Cc1c(-c2[nH]c3ccc(C4CCC(O)(CN)CC4)nc3c2C(C)C)cn2ncnc2c1C` (stereo not drawn) [Example 1035, 1-(aminomethyl)-4-(2-(7,8-dimethyl-[1,2,4]triazolo[1,5-a]pyridin-6-yl)-3-isopropyl-1H-pyrrolo[3,2-b]pyridin-5-yl)cyclohexan-1-ol], the IC50 was found to be 1.7 nM at human TLR7, 21 nM on human TLR8 and 3670 nM on human TLR9.

Regarding `CC(C)c1c(-c2cn(C)c3ncccc23)[nH]c2ccc(C3CCC(N4CC5(COC5)C4)CC3)nc12` (stereo not drawn) [Example 1036], the IC50 at human TLR7 was 1.3 nM; at human TLR8 it was 2.7 nM; at human TLR9 it was 1930 nM.

Take `COc1cc(-c2[nH]c3ccc(C4CCC(N5CC6(COC6)C5)CC4)nc3c2C(C)C)cn2ncnc12` (stereo not drawn) [Example 1037]: the half-maximal inhibitory concentration (IC50) was 3.1 nM on human TLR7, 6.2 nM at human TLR8 and 1610 nM on human TLR9.

Regarding `CCN(C1CCC(c2ccc3[nH]c(-c4cn5ncnc5c(C)c4C)c(C(C)C)c3n2)CC1)C1COC1` (stereo not drawn) [Example 1038], the IC50 at human TLR7 is 0.98 nM; on human TLR8, 1.3 nM; at human TLR9 it was 1910 nM.

For `CCN(C1CCC(c2ccc3[nH]c(-c4cn5ncnc5c(C)c4C)c(C(C)C)c3n2)CC1)C1COC1` (stereo not drawn) [Example 1039], the IC50 against human TLR7 amounted to 7.2 nM; on human TLR8, 6.4 nM; on human TLR9, 3070 nM.

For `Cc1c(-c2[nH]c3ccc(C4CCC(N5CC(C)(C)C5)CC4)nc3c2C(C)C)cn2ncnc2c1C` (stereo not drawn) [Example 1040], the values for the IC50 at human TLR7, at human TLR8 and at human TLR9 were 0.17 nM, 0.66 nM and 1110 nM, respectively.

In the case of `Cc1c(-c2[nH]c3ccc(C4CCC(N5CC(C)(O)C5)CC4)nc3c2C(C)C)cn2ncnc2c1C` (stereo not drawn) [Example 1041], the IC50 came to 0.49 nM at human TLR7, 0.85 nM on human TLR8 and 2420 nM on human TLR9.

As for `COC1CN(C2CCC(c3ccc4[nH]c(-c5cn6ncnc6c(C)c5C)c(C(C)C)c4n3)CC2)C1` (stereo not drawn) [Example 1042], the IC50 against human TLR7 came out at 2.2 nM; at human TLR8, 3.3 nM; on human TLR9, 3320 nM.

Take `Cc1c(-c2[nH]c3ccc(C4CCC(NC5CCS(=O)(=O)CC5)CC4)nc3c2C(C)C)cn2ncnc2c1C` (stereo not drawn) [Example 1043]: the IC50 came out at 2.1 nM on human TLR7, 1.6 nM at human TLR8 and 1750 nM at human TLR9.

Take `Cc1c(-c2[nH]c3ccc(C4CCC(N5CC(C)(O)C5)CC4)nc3c2C(C)C)cn2ncnc2c1C` (stereo not drawn) [Example 1044]: the IC50 on human TLR7 was 4.1 nM; on human TLR8, 9.2 nM; on human TLR9 it was 3600 nM.

For `COC1CN(C2CCC(c3ccc4[nH]c(-c5cn6ncnc6c(C)c5C)c(C(C)C)c4n3)CC2)C1` (stereo not drawn) [Example 1045], the IC50 on human TLR7 is 4.8 nM; at human TLR8, 3.6 nM; on human TLR9, 3240 nM.

On to `Cc1c(-c2[nH]c3ccc(C4CCC(N5CC(O)C5)CC4)nc3c2C(C)C)cn2ncnc2c1C` (stereo not drawn) [Example 1046], for which the results for the IC50 against human TLR7, on human TLR8 and at human TLR9 were 0.64 nM, 2.4 nM and 2500 nM, respectively.

Take `Cc1c(-c2[nH]c3ccc(C4CCC(N5CC(C(=O)N(C)C)C5)CC4)nc3c2C(C)C)cn2ncnc2c1C` (stereo not drawn) [Example 1047]: the IC50 was 1.3 nM against human TLR7, 3.5 nM at human TLR8 and 4490 nM at human TLR9.

In the case of `Cc1c(-c2[nH]c3ccc(C4CCC(N(C)C(C)C)CC4)nc3c2C(C)C)cn2ncnc2c1C` (stereo not drawn) [Example 1048], the IC50 against human TLR7 worked out at 4.4 nM; on human TLR8 it was 13 nM; at human TLR9, 9830 nM.

For the origin of these results see patent US10544143B2, “4-azaindole compounds” (BRISTOL-MYERS SQUIBB COMPANY, priority 2017, dated 2020).
